Experimental data as given in paper PMC7319089, “Multi-Component Comparative Pharmacokinetics in Rats After Oral Administration of Fructus aurantii Extract, Naringin, Neohesperidin, and Naringin-Neohesperidin” (Frontiers in Pharmacology, 2020).
Where two headings read alike, the source gives them in different places.

How the values were obtained:
[1] = Pharmacokinetics in SD rats after oral administration of FA extract, NA, NHE or NA-NHE (UPLC-MS/MS of plasma, DAS 3.1); format: in vivo, Sprague-Dawley (SD) rats; conditions: for MRT last: read-out: MRT(0-t); for MRT inf: read-out: MRT(0-∞); for Vd/F: read-out: Vz/F; for Cmax: plasma after β-glucuronidase/sulfatase hydrolysis; for AUC(0-t): read-out: AUC(0-t)
Description: The 20 μl of β-glucuronidase and 15 μl of sulfatase were added into 50 μl of plasma sample. After vortexed for 30 s, the mixture was incubated at 37°C for 2 h in a water bath, then placed in ice water for 5 min to terminate the reaction ([Xu et al., 2019]). IS solution (20 µl, 5 μg/ml) and acetonitrile (1.0 ml) were added into the mixture and vortexed for 2 min. […] Rats were randomly divided into the following four groups (6 rats in each group): naringin (NA), neohesperidin (NHE), naringin-neohesperidin (NA-NHE), and FA extract group. The oral administration doses were selected according to the literatures ([Tong et al., 2012]; [Yang et al., 2012]; [Committee of National Pharmacopoeia of RP China, 2015]; [Wang et al., 2018]; [Zhang et al., 2018]; [Chen et al., 2019]), the contents of the five components in FA, and the preliminary experiments. The specific doses were as follows: […] The rats had free access to water during the experiment. The blood samples were then immediately centrifuged at 4,000 rpm for 10 min. The plasma was frozen and stored at −80°C until analysis. The plasma concentration of the studied compounds was determined according to the daily calibration curve.

[2] = Stability of the analytes in rat plasma (QC samples); format: in vitro ADME; conditions: n = 6; for Long-term Stability RE: -20 °C for one month; for Short-term Stability RE: room temperature 24 h; for Free–thaw Stability RE: three cycles -20 °C/room temperature
Description: The QC samples were assayed under several different conditions to evaluate the stability of the compounds in rat plasma. For the short-term stability, fresh plasma samples were kept at room temperature for 24 h before the sample preparation. After keeping the samples at room temperature for 24 h, post-preparation stability was tested. Freeze-thaw cycles (-20 °C/room temperature) stability were […] treated at -20°C for freezing-room temperature melting three times (repeated freezing and thawing three times). In each freeze-thaw cycle, the samples were frozen and stored at -20 °C for 24 h, and subsequently thawed at room. To evaluate the long-term stability of QC plasma samples, following storage at -20 °C for one month. The stability data were acceptable when the bias was within ±15% of the actual value ([Yuan et al., 2017]).

[3] = Sprague-Dawley, rat, plasma, male SD rats, oral FA extract 10.8 g/kg of the original medicinal material, statistical moment parameters, n = 6
[4] = Sprague-Dawley, rat, male SD rats, oral FA extract 10.8 g/kg of the original medicinal material, statistical moment parameters, n = 6
[5] = male SD rats, oral FA extract 10.8 g/kg of the original medicinal material, statistical moment parameters, n = 6
[6] = male SD rats, oral FA extract 10.8 g/kg of the original medicinal material, two-compartment model parameters, n = 6
[7] = male, Sprague-Dawley, rat, plasma, po, 10.8 g/kg, male SD rats, oral FA extract 10.8 g/kg of the original medicinal material, statistical moment parameters, n = 6
[8] = male, Sprague-Dawley, rat, plasma, po, 10.8 g/kg, male SD rats, oral FA extract 10.8 g/kg of the original medicinal material, statistical moment parameters, n = 6, read-out: CLz/F (converted)
[9] = male, Sprague-Dawley, rat, plasma, po, 10.8 g/kg, male SD rats, oral FA extract 10.8 g/kg of the original medicinal material, statistical moment parameters, n = 6, read-out: Tmax
[10] = male, Sprague-Dawley, rat, plasma, po, 10.8 g/kg, male SD rats, oral FA extract 10.8 g/kg of the original medicinal material, statistical moment parameters, n = 6, read-out: t1/2z (converted)
[11] = male, Sprague-Dawley, rat, plasma, po, 10.8 g/kg, male SD rats, oral FA extract 10.8 g/kg of the original medicinal material, two-compartment model parameters, n = 6
[12] = male, Sprague-Dawley, rat, plasma, po, 10.8 g/kg, male SD rats, oral FA extract 10.8 g/kg of the original medicinal material, two-compartment model parameters, n = 6, read-out: CL/F (converted)
[13] = male, Sprague-Dawley, rat, plasma, po, 10.8 g/kg, male SD rats, oral FA extract 10.8 g/kg of the original medicinal material, two-compartment model parameters, n = 6, read-out: t1/2β (converted)
[14] = high QC concentration (3880 / 2946 / 2470 / 836 / 422.4 ng/mL)
[15] = low QC concentration (3.88 / 2.946 / 2.47 / 0.836 / 0.4224 ng/mL)
[16] = middle QC concentration (77.6 / 58.92 / 49.4 / 16.72 / 8.44 ng/mL)

MRT last [1, 3] [h]	MRT inf [1, 3] [h]	Vd/F [1, 3] [L/kg]	Cmax [1, 4] [ng/mL]	Ka [1, 6] [h⁻¹]	V1/F [1, 6] [L/kg]	t1/2α [1, 6] [h]	AUC(0-inf) [1, 7] [ng·h/mL]	AUC(0-t) [1, 7] [ng·h/mL]	CL/F [1, 8] [mL/min/kg]	Tmax [1, 9] [h]	half-life [1, 10] [h]	AUC(0-inf) [1, 11] [ng·h/mL]	AUC(0-t) [1, 11] [ng·h/mL]	CL/F [1, 12] [mL/min/kg]	half-life [1, 13] [h]	Long-term Stability RE [2, 14] [%]	Long-term Stability RE [2, 15] [%]	Long-term Stability RE [2, 16] [%]	Short-term Stability RE [2, 14] [%]	other results	SMILES
4.82 ± 0.76	6.39 ± 2.22	477 ± 70.2	27.7 ± 2.85	2.18 ± 0.97	5.91 ± 1.12	6.39 ± 0.11	80.4 ± 15.5	76.9 ± 14.7	2310	~1	> 6.5	87.8 ± 22.9	84.4 ± 22.5	1200	6.48 ± 0.38	-7.37	-10.98	-13.52	-2.81	Tmax [1, 5]: 0.92 ± 0.13 h; t1/2z [1, 5]: 6.52 ± 0.63 h; Short-term Stability RE [2, 15]: -6.25%; Short-term Stability RE [2, 16]: -8.40%; Free–thaw Stability RE [2, 14]: -6.01%; Free–thaw Stability RE [2, 15]: -9.71%; Free–thaw Stability RE [2, 16]: 11.07%	COc1ccc2ccc(=O)oc2c1CC1OC1(C)C (centres unmarked) [Meranzin, meranzin]
4.23 ± 0.5	4.8 ± 0.99	151 ± 47	130 ± 4.78	0.69 ± 0.25	6.80 ± 1.24	4.40 ± 0.34	480 ± 117	473 ± 119	393	1.17 ± 0.26	2.1 ± 0.37	473 ± 63.1	472 ± 62.6	134	4.49 ± 0.57	-3.36	5.83	6.71	0.80	AUC(0-t) ([1]; Sprague-Dawley, rat, plasma, po, 10.8 g/kg, rats, oral FA extract, unit inferred): 473 ± 119 ng·h/mL; Short-term Stability RE [2, 15]: 7.01%; Short-term Stability RE [2, 16]: 7.89%; Free–thaw Stability RE [2, 14]: -1.72%; Free–thaw Stability RE [2, 15]: 2.21%; Free–thaw Stability RE [2, 16]: 10.46%	COc1ccc(-c2cc(=O)c3c(OC)c(OC)c(OC)c(OC)c3o2)cc1OC [Nobiletin, nobiletin]
9.71 ± 0.56	9.75 ± 0.56	2.06 ± 0.29	2450 ± 226	1.94 ± 0.37	0.82 ± 0.06	2.63 ± 0.39	19700 ± 2630	19600 ± 2620	9.33	9.33 ± 1.03	2.56 ± 0.17	20900 ± 3010	20700 ± 3010	13.8	2.65 ± 0.18	-9.76	-0.84	12.09	-13.49	Shape of the plasma concentration-time profile ([1]; rats, oral administration, naringin and neohesperidin determined as naringenin and hesperetin): double peaks; Short-term Stability RE [2, 15]: -3.02%; Short-term Stability RE [2, 16]: 14.81%; Free–thaw Stability RE [2, 14]: -10.94%; Free–thaw Stability RE [2, 15]: -4.36%; Free–thaw Stability RE [2, 16]: 8.14%	O=C1C[C@@H](c2ccc(O)cc2)Oc2cc(O)cc(O)c21 [Naringenin, naringenin]
5.17 ± 0.34	6.57 ± 0.95	9.36 ± 3.56	3360 ± 91	2.05 ± 0.46	4.30 ± 1.14	6.61 ± 0.86	11600 ± 2760	11100 ± 2820	16.2	~1	> 6.5	12300 ± 2590	12100 ± 2760	7.5	6.91 ± 1.05	6.85	7.62	3.19	7.43	Short-term Stability RE [2, 15]: 4.71%; Short-term Stability RE [2, 16]: 1.55%; Free–thaw Stability RE [2, 14]: 7.63%; Free–thaw Stability RE [2, 15]: 5.77%; Free–thaw Stability RE [2, 16]: 0.71%	COc1ccc2ccc(=O)oc2c1CC(O)C(C)(C)O (centres unmarked) [Meranzin hydrate, meranzin hydrate]
